pIC50: −log10 of the molar value.
Target: T1, B7-1/CD28 binding (Homo sapiens, UniProt P33681)
T1 sequence (P33681 35-242 limits assumed): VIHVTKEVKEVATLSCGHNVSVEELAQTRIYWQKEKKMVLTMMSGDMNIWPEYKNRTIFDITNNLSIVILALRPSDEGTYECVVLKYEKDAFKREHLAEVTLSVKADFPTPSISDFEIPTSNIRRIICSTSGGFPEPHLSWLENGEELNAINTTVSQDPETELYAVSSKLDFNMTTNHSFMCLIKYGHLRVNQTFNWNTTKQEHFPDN
Assay: CD28/B7-1 ELISA (B7-1/CD28 binding inhibition)
Details: CD28-Fc coated wells, B7-1-Fc-biotin/streptavidin-alkaline phosphatase detection complex, 1% DMSO
Protocol: Evaluation of B7-1/CD28 Binding Inhibition for Test Compounds
Wells are coated with 300 ng CD28-Fc in carbonate buffer (pH 9.4) overnight at 4° C., blocked with 1% bovine serum albumin in tris-buffered saline (TBS) for 1 h at 22° C. and washed 3 times in TBS prior to assay. The detection complex is formed as follows: B7-1-Fc-biotin, prepared using NHS-LC-biotin (Pierce #21335) according to the manufacturers instructions (4.1 moles biotin/mole Fc), is added at 0.8 ug/ml to streptavidin-alkaline phosphatase (Caltag Sa1008 at 1:1000 in TBS. Gradient dilutions of test compound in dimethylsulfoxide (1% final) are added to this complex and incubated 30 min. at 22° C. Detection complex (+/−inhibitors) is then added to the CD28 coated wells for 25 min. at 22° C., washed 5 times with TBS, developed with the calorimetric substrate pNPP (Pierce #34045) in diethanolamine/MgCl2 buffer (pH 9.5) and read at 405 nm. The inhibition constant (IC50) is calculated by subtracting background binding and comparing to uninhibited (DMSO alone) controls. The inhibition constant represents the concentration of test compound required to achieve 50% inhibition.

Structure (SMILES)	pIC50
Cn1ncc2c3[nH]n(-c4ccc(F)cc4F)c(=O)c3c(-c3cccc(C(F)(F)F)c3)nc21 [Example 44]	6.00
Cn1ncc2c3[nH]n(-c4ccc(C(C)(C)C)cc4)c(=O)c3c(-c3cccc(C(F)(F)F)c3)nc21 [Example 42]	6.05
Cn1ncc2c3[nH]n(-c4ccc(I)cc4)c(=O)c3c(-c3cccc(C(F)(F)F)c3)nc21 [Example 16]	7.30
Cn1ncc2c3[nH]n(-c4cccc(OCc5ccccc5)c4)c(=O)c3c(-c3cccc(C(F)(F)F)c3)nc21 [Example 59]	7.70
Cn1ncc2c3[nH]n(-c4cccc(F)c4)c(=O)c3c(-c3cccc(S(C)(=O)=O)c3)nc21 [Example 55]	5.72
COC(=O)c1cc(-n2[nH]c3c(c(-c4cccc(C(F)(F)F)c4)nc4c3cnn4C)c2=O)ccc1F [Example 35]	7.01
Cn1ncc2c3[nH]n(-c4cccc(F)c4)c(=O)c3c(-c3cccc(C#N)c3)nc21 [Example 53]	7.52
Cc1cccc(-c2nc3c(cnn3C)c3[nH]n(-c4cc(C)cc(C)c4)c(=O)c23)c1 [Example 19]	6.00
O=c1c2c(-c3cccc(C(F)(F)F)c3)nc3c(cnn3Cc3ccccc3)c2[nH]n1-c1ccc(F)cc1 [Example 64]	7.15
Cn1ncc2c3[nH]n(-c4ccc(F)cc4)c(=O)c3c(-c3cncc(Br)c3)nc21 [Example 8]	6.70
Cn1ncc2c3[nH]n(-c4cccc(F)c4)c(=O)c3c(-c3ccc4c(c3)OCO4)nc21 [Example 76]	6.53
Cn1ncc2c3[nH]n(-c4ccccn4)c(=O)c3c(-c3cccc(Br)c3)nc21 [Example 13]	7.15
Cn1ncc2c3[nH]n(-c4cccc(F)c4)c(=O)c3c(-c3ccsc3)nc21 [Example 74]	6.98
Cn1ncc2c3[nH]n(-c4ccc([N+](=O)[O-])cc4)c(=O)c3c(-c3cccc(Br)c3)nc21 [Example 18]	7.92
Cn1ncc2c3[nH]n(-c4ccccc4F)c(=O)c3c(-c3cccc(C(F)(F)F)c3)nc21 [Example 41]	6.40
Cn1ncc2c3[nH]n(-c4ccc(Cl)c(C(=O)O)c4)c(=O)c3c(-c3cccc(C(F)(F)F)c3)nc21 [Example 25]	8.15
COC(=O)c1ccc(-n2[nH]c3c(c(-c4cccc(C(F)(F)F)c4)nc4c3cnn4C)c2=O)cc1F [Example 37]	7.92
Cn1ncc2c3[nH]n(-c4cccc(F)c4)c(=O)c3c(-c3cccc([S+](C)[O-])c3)nc21 (stereo not shown) [Example 56]	6.48
O=c1c2c(-c3cccc(C(F)(F)F)c3)nc3c(cnn3-c3ccccc3)c2[nH]n1-c1cccc(F)c1 [Example 7]	6.12
Cn1ncc2c3[nH]n(-c4ccc(Cl)cc4)c(=O)c3c(-c3ccccc3)nc21 [Example 6]	5.74
COC(=O)c1ccc(-n2[nH]c3c(c(-c4cccc(Br)c4)nc4c3cnn4C)c2=O)cc1Cl [Example 31]	8.05

Structure (SMILES)	pIC50
COc1cccc(-c2nc3c(cnn3C)c3[nH]n(-c4cccc(F)c4)c(=O)c23)c1 [Example 75]	7.09
Cn1ncc2c3[nH]n(-c4ccc(OCc5ccccc5)cc4)c(=O)c3c(-c3cccc(C(F)(F)F)c3)nc21 [Example 58]	7.60
Cn1ncc2c3[nH]n(-c4cccc(F)c4)c(=O)c3c(-c3cccc(C(F)(F)F)c3)nc21 [Example 43]	7.70
CCOc1ccc(-n2[nH]c3c(c(-c4cccc(C(F)(F)F)c4)nc4c3cnn4C)c2=O)nn1 [Example 23]	6.54
Cn1ncc2c3[nH]n(-c4nccc(C(F)(F)F)n4)c(=O)c3c(-c3cccc(C(F)(F)F)c3)nc21 [Example 45]	5.92
Cn1ncc2c3[nH]n(-c4ccc(F)c(C(=O)O)c4)c(=O)c3c(-c3cccc(C(F)(F)F)c3)nc21 [Example 36]	7.15
Cn1ncc2c3[nH]n(-c4cccc(F)c4)c(=O)c3c(-c3cccc(C(=O)O)c3)nc21 [Example 60]	7.15
Cn1ncc2c3[nH]n(-c4cccc(F)c4)c(=O)c3c(-c3cncc(Br)c3)nc21 [Example 4, 4-(5-Bromo-3-pyridinyl)-2-(3-fluorophenyl)-6-methyl-1,6-dihydrodipyrazalo[3,4-b:3,4-d]pyridin-3(2H)-one]	7.70
Cn1ncc2c3[nH]n(-c4ccc(C(=O)O)c(F)c4)c(=O)c3c(-c3cccc(C(F)(F)F)c3)nc21 [Example 38]	6.68
Cn1ncc2c3[nH]n(-c4ccc(=O)[nH]n4)c(=O)c3c(-c3cccc(C(F)(F)F)c3)nc21 [Example 24]	7.14
COC(=O)c1ccc(-n2[nH]c3c(c(-c4cccc(C(F)(F)F)c4)nc4c3cnn4C)c2=O)cc1Cl [Example 29]	7.39
Cn1ncc2c3[nH]n(-c4cccc(F)c4)c(=O)c3c(-c3cccc([N+](=O)[O-])c3)nc21 [Example 50]	8.40
Cn1ncc2c3[nH]n(-c4ccc(-c5ccccc5)cc4)c(=O)c3c(-c3cccc(C(F)(F)F)c3)nc21 [Example 57]	7.41
Cn1ncc2c3[nH]n(-c4ccc(N)cc4)c(=O)c3c(-c3cccc(C(F)(F)F)c3)nc21 [Example 48]	7.30
Cn1ncc2c3[nH]n(-c4cccc(F)c4)c(=O)c3c(-c3cc(Cl)cc(Cl)c3)nc21 [Example 73, 4-(3,5-Dichlorophenyl)-2-(3-fluorophenyl)-6-methyl-1,6-dihydrodypyrazolo[3,4-b:3′,4′-d]pyridin-3(2H)-one]	7.40
Cn1ncc2c3[nH]n(-c4ccc(C(=O)O)c(Cl)c4)c(=O)c3c(-c3cccc(C(F)(F)F)c3)nc21 [Example 30]	7.80
Cn1ncc2c3[nH]n(-c4cccc(C(=O)O)c4)c(=O)c3c(-c3cccc(C(F)(F)F)c3)nc21 [Example 21]	7.32
Cn1ncc2c3[nH]n(-c4ccc(C(=O)O)cc4)c(=O)c3c(-c3cccc(C(F)(F)F)c3)nc21 [Example 33]	6.72
Cc1cc(C)cc(-n2[nH]c3c(c(-c4cccc(C(F)(F)F)c4)nc4c3cnn4C)c2=O)c1 [Example 20]	7.18
Cn1ncc2c3[nH]n(-c4ccccn4)c(=O)c3c(-c3cncc(Br)c3)nc21 [Example 9]	6.40
Cc1cc(-n2[nH]c3c(c(-c4cccc(Br)c4)nc4c3cnn4C)c2=O)cc(C(F)(F)F)c1 [Example 12]	6.72

Structure (SMILES)	pIC50
CCCn1ncc2c3[nH]n(-c4ccc(F)cc4)c(=O)c3c(-c3cccc(C(F)(F)F)c3)nc21 [Example 68]	7.05
CCOC(=O)c1scc(C)c1-n1[nH]c2c(c(-c3cccc(C(F)(F)F)c3)nc3c2cnn3C)c1=O [Example 51]	5.68
Cn1ncc2c3[nH]n(-c4cccc(F)c4)c(=O)c3c(-c3cccc(C(N)=O)c3)nc21 [Example 54]	5.82
Cn1ncc2c3[nH]n(-c4ccc(F)cc4)c(=O)c3c(-c3cccc([N+](=O)[O-])c3)nc21 [Example 46]	7.30
Cc1cc(C)cc(-n2[nH]c3c(c(-c4cccc(Br)c4)nc4c3cnn4C)c2=O)c1 [Example 17]	7.24
CCOC(=O)c1cccc(-n2[nH]c3c(c(-c4cccc(C(F)(F)F)c4)nc4c3cnn4C)c2=O)c1 [Example 28]	6.77
Cn1ncc2c3[nH]n(-c4ccc([N+](=O)[O-])cc4)c(=O)c3c(-c3cccc(C(F)(F)F)c3)nc21 [Example 40]	7.00
COC(=O)c1cc(-n2[nH]c3c(c(-c4cccc(C(F)(F)F)c4)nc4c3cnn4C)c2=O)ccc1Cl [Example 26]	6.92
Cn1ncc2c3[nH]n(-c4ccc(F)cc4)c(=O)c3c(-c3cccc(C(F)(F)F)c3)nc21 [Example 39]	7.30
CC1CN(c2nc3c(cnn3C)c3[nH]n(-c4cccc(F)c4)c(=O)c23)CC(C)O1 (stereo not shown) [Example 81, 4-(2,6-Dimethyl-4-morpholinyl)-2-(3-fluorophenyl)-6-methyl-1,6-dihydrodipyrazolo[3,4-b:3′-4′-d]pyridin-3(2H)-one]	6.73
COC(=O)c1ccc(-n2[nH]c3c(c(-c4cccc(C(F)(F)F)c4)nc4c3cnn4C)c2=O)cc1 [Example 34]	7.51
O=c1c2c(-c3cccc(C(F)(F)F)c3)nc3[nH]ncc3c2[nH]n1-c1ccc(F)cc1 [Example 65]	7.30
Cn1ncc2c3[nH]n(-c4ccc(F)cc4)c(=O)c3c(-c3cccc(N)c3)nc21 [Example 47]	6.40
CCn1ncc2c3[nH]n(-c4ccc(F)cc4)c(=O)c3c(-c3cccc(C(F)(F)F)c3)nc21 [Example 67]	6.11
O=c1c2c(-c3cccc(C(F)(F)F)c3)nc3c(cnn3CCO)c2[nH]n1-c1ccc(F)cc1 [Example 66]	6.10
Cn1ncc2c3[nH]n(-c4ccc(C(=O)O)c(Cl)c4)c(=O)c3c(-c3cccc(Br)c3)nc21 [Example 32]	8.05
COC(=O)c1cccc(-n2[nH]c3c(c(-c4cccc(C(F)(F)F)c4)nc4c3cnn4C)c2=O)c1 [Example 22]	8.10
Cc1cccc(-c2nc3c(cnn3C)c3[nH]n(-c4ccccn4)c(=O)c23)c1 [Example 10]	6.82
Cc1csc(C(=O)O)c1-n1[nH]c2c(c(-c3cccc(C(F)(F)F)c3)nc3c2cnn3C)c1=O [Example 52]	5.77
